According to patent publication US20250042974A1, “LIPID MEDIATOR CHAPERONE AND USES THEREOF” (The Children's Medical Center Corporation, priority 2021, published 2025):

Columns and labels:
human platelets = test: Human platelet aggregation in vitro (light transmission aggregometry); type: cell-based; conditions: SFLLRN peptide-induced, 2-20 nM drug, N=2, read-out: EC50 of inhibition of platelet aggregation
Description: Whole blood samples were drawn from healthy donors in the presence of 10% sodium citrate (Sigma, 5577-50 ml) and were spun at 1000 rpm using Beckman centrifuge (GS-6K) for 20 min. The top Platelet-rich Plasma (PRP) layer was collected resting at a 37° C. water bath for 30 minutes. PRP was diluted with the one-fifth volume of the acid-citrate-dextrose buffer, Prostaglandin E1 (PGE1) was added to a final concentration of 0.15 μM. The mixture was spun in a conical-bottom tube at 2000 g for 10 min, and the platelet pellet was collected and suspended in pre-warmed HEPES-Tyrode-Glucose Buffer (HTG). The platelet concentration was determined and adjusted to ˜2.5×10^5/μL with HTG on a Hematology cell counter System (Drew Scientific, 850FS).
Light Transmission Aggregometry was used to evaluate the platelet response to agonists and antagonists. In a 4-channel aggregometer (Platelet ionized calcium aggregometer, Chronolog Corp Model 660), human platelets were stirred in a cuvette at 37° C. […] Data were analyzed using AGGRO/LINK software package Ver 5.2.5 and Microsoft office professional plus 2013.

NF-κB = test: TNFα-induced NF-κB luciferase reporter assay in HMEC; type: cell-based, human
Description: TNFα-dependent NF-κB signaling was determined by using an NFκB-Luciferase based reporter assay system (pGL4.32[luc2P/NF-κB-RE/Hygro]; Promega). A stable NFκB reporter cell line in human microvascular endothelial cells (HMEC-1; ATCC) was created. HMEC were maintained in 10% FCS/Pen-Strep MCDB media supplemented with 2 mM L-Glutamine (Sigma), EGF (2 ng/ml; R&D systems) and Hydrocortisone (1 ng/ml; Sigma). […] The 5×10^5 reporter cells were distributed to 12 well plates and allowed to adhere for 24 hours. Media was replaced with MCDB media supplemented with 1% FCS, L-Glutamine. […] Samples were extracted using cell lysis buffers (Promega), luciferin substrate was added and the plates were measured for […] at 470 nm for 8-15 minutes in a SpectraMax L 96-well plate reader (Molecular Devices).

HUVEC = test: TEER analysis of endothelial barrier function; type: cell-based, human; conditions: Iloprost 200 nM; HDL-S1P 100 nM S1P; AUY954 1 μM
Description: Transendothelial Electrical Resistance (TEER) was performed on HUVEC as described previously (Swendeman et al, 2017). Essentially, HUVECs were maintained in HUVEC Growth Medium (HGM; M199 medium supplemented with 10% FCS (Corning), 1:100 Pen-Strep (Sigma), 8 mM Glutamine (Sigma), Heparin (Sigma, 100 U, LMW) and Sheep Brain Extract prepared (REF). All cultures were maintained on Fibrobronectin (2 μg/ml) coated plates. For TEER analysis a 96 well ECIS system (96W10idf PET array, Applied BioPhysics) was employed. Wells were coated with Fibronectin (2 μg/ml) resuspended in saline for 30 minutes at room temp. HUVECs were harvested, resuspended in HGM at a cell density of 25-30×10^3 cells/well and allowed to adhere overnight. Prior to analysis, culture media was removed and replaced with M199 media supplemented with Pen-Strep/Glutamine and 1% FCS for 30 minutes. For stimulation studies, either Iloprost (Cayman Biochemicals) or Iloprost loaded onto ApoA1 or ApoA1-ApoM chaperones, or S1P prepared on ApoA1-ApoM or ApoM-Fc chaperones were added to cultures and TEER studies were performed from 3-24 hours.

Molecule: CC#CCC(C)[C@H](O)/C=C/[C@@H]1[C@H]2C/C(=C/CCCC(=O)O)C[C@H]2C[C@H]1O (stereo partly shown) [Iloprost]
- EC50 (human platelets): ~11 nM

Molecule: ApoA1: Purified Human ApoA1 (Sigma) [reference compound]
- inhibition of TNFα-induced NF-κB activity at higher doses (NF-κB; 100-400 μg/ml, bi-phasic dose-response): not as inhibitory
- inhibition of TNFα-induced NF-κB activity (NF-κB; low doses 25-50 μg/ml): ~25%

Molecule: O=C(O)CCNCc1ccc2sc(-c3ccc(-c4ccccc4)c(C(F)(F)F)c3)cc2c1 [AUY954, reference compound]
- endothelial barrier function in combination with Iloprost (HUVEC): additive manner
